For series [1], the target named is T1, human GLP-1R (Homo sapiens, UniProt P43220). The series is described as follows: cAMP FRET reporter (H188) agonism assay at human GLP-1R in HEK293 cells. In kind it is cell-based.
Method: HEK293 cells stably expressing the human GLP-1R and virally transduced with H188 for FRET assays were obtained from Novo Nordisk A/S (Bagsvaerd, Denmark).[67] […] Post-transfection, cells were incubated for 48 h in fresh culture media. For real-time kinetic assays of FRET, cells were harvested and resuspended in 21 mL of SES buffer and plated at 196 μL per well. […] FRET assays and data analysis were performed using a FlexStation 3 microplate reader as described.
Cells were then transduced for 16 h with H188 virus at a density of 60 000 cells/well under conditions in which the multiplicity of infection was equivalent to 25 viral particles per cell. The culture media was removed and replaced by 200 μL/well of a standard extracellular saline (SES) solution supplemented with 11 mM glucose and 0.1% BSA. […] Real-time kinetic assays of FRET were performed using a FlexStation 3 microplate reader equipped with excitation and emission light monochromators (Molecular Devices, Sunnyvale, CA). […] The emission intensities were the averages of 15 excitation flashes for each time point per well. […] Prism 8.1 was also used for nonlinear regression analysis to quantify dose–response relationships.
The target of a further series is T2, rat GLP-1R (Rattus norvegicus, UniProt P32301).
T2 sequence (P32301 22-463): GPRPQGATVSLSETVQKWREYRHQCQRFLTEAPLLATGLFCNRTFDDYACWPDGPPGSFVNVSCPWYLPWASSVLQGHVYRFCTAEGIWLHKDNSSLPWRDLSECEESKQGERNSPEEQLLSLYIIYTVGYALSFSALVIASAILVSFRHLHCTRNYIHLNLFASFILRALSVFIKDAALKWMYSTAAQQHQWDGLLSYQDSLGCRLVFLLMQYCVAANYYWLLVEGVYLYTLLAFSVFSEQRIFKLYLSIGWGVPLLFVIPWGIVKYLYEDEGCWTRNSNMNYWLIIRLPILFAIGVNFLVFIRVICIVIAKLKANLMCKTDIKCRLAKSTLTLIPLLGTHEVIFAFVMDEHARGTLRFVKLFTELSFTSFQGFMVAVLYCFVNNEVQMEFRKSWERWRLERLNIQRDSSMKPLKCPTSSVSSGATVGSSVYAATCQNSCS
The class given is cell-based.

The target of series [2] is T1, human GLP-1R. The series is described as follows: Taglite fluorescent competitive binding assay at GLP-1R against GLP-1red. Conditions: CHO-K1 cells, tracer GLP-1red 4 nM, duplicate independent runs.
Another series has as its target T3, human Y1-R (Homo sapiens, UniProt P25929).
T3 sequence (P25929 1-384): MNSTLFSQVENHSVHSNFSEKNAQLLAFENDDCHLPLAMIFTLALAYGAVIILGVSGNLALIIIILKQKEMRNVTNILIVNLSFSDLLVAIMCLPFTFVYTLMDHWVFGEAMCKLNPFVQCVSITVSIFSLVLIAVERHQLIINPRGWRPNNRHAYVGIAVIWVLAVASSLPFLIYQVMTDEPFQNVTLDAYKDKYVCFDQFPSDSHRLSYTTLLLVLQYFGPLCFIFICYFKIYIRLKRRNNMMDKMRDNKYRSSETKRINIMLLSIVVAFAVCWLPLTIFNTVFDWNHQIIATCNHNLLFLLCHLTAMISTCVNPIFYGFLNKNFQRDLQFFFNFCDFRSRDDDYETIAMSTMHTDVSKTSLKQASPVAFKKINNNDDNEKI
The series is described as follows: cAMP FRET reporter (H188) assay at Y1-R: counteraction of adenosine-stimulated cAMP in HEK293 cells. In kind it is cell-based. The conditions noted are these: HEK cells with H188 biosensor, recombinant human Y1-R and endogenous A2b receptors; 2 μM adenosine; 95% CI in brackets, at least triplicate; read-out: Y1-R agonist action (IC50), decrease of adenosine-raised cAMP.

Series [3] in a line: Pooled rat liver microsomal stability assay. The class given is in vitro ADME. The conditions noted are these: pooled male Sprague–Dawley rat liver microsomes 1 mg/mL, 30 μM peptide, 1 mM NADPH, pH 7.4, 37 °C, over 120 min, HPLC UV 206 nm, n = 3; standard error in brackets. For orientation: Liver microsomes are a subcellular fraction often used to study metabolism.
Method: Pooled liver microsomes from a male Sprague–Dawley rat were purchased from Sigma-Aldrich. Microsomal incubations were performed in triplicate as independent data sets in 3 mM MgCl2, 25 mM KH2PO4 buffer at pH 7.4. Assays were performed at 500 μL total volume with 30 μM peptide, 1 mM NADPH, and 1 mg/mL pooled liver microsomes. Kanamycin at 200 μM was used as an internal standard. Pooled rat liver microsome assay showing data collected by HPLC. […] Assays were conducted at 37 °C with gentle rocking. […] Data were fit utilizing eqs 3–6.
The target in the next series is T4, human Y2-R (Homo sapiens, UniProt P49146).
T4 sequence (P49146 1-381): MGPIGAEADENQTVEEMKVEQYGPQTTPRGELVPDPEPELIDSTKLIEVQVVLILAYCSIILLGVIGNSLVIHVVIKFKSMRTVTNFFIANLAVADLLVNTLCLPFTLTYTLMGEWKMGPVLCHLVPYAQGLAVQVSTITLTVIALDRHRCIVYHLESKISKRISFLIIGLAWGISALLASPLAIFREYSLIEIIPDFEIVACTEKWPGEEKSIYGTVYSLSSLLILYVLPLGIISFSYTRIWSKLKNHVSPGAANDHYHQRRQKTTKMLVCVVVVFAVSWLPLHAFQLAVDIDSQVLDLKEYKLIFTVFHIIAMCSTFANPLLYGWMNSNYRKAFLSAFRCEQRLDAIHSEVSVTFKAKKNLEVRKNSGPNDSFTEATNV
The series is described as follows: cAMP FRET reporter (H188) assay at Y2-R: counteraction of adenosine-stimulated cAMP in HEK293 cells. Conditions: HEK cells with H188 biosensor, recombinant human Y2-R and endogenous A2b receptors; 2 μM adenosine; 95% CI in brackets, at least triplicate; read-out: Y2-R agonist action (IC50), decrease of adenosine-raised cAMP. In kind it is cell-based.

The next series concerns the target rat GlucR (Rattus norvegicus, UniProt P30082). Nature of the series: cAMP FRET reporter (H188) agonism assay at GlucR in HEK293 cells. The conditions noted are these: HEK293 cells stably expressing GlucR, H188 FRET biosensor; duplicate independent experiments; read-out: GlucR agonist action (EC50), increase of cytosolic cAMP. In kind it is cell-based. On the procedure: Plasmid encoding human Y2-R (I.D. NPYR20TN00) in pcDNA3.1 and human Y1-R (NPYR10TN00) were obtained from the cDNA Resource Center (Bloomsburg, PA). HEK293 cells stably expressing the rat GlucR were obtained from C. […] Adenovirus for transduction of HEK293 cells was generated by a commercial vendor (Vira-Quest, North Liberty, IA) using the shuttle vector pVQAd CMV K-NpA and the H188 plasmid provided by Prof. Kees Jalink.[74]
These assays were conducted as fully described by us previously.[70],[71] Briefly, HEK293 cells transiently or stably expressing recombinant GPCRs were plated at 80% confluency on 96-well clear-bottom assay plates (Costar 3904, Corning, NY). […] Real-time kinetic assays of FRET were performed using a FlexStation 3 microplate reader equipped with excitation and emission light monochromators (Molecular Devices, Sunnyvale, CA). Excitation light was delivered at 435/9 nm (455 nm cutoff), and emitted light was detected at 485 ± 15 nm (cyan fluorescent protein) or 535 ± 15 nm (yellow fluorescent protein).[68],[75] […] The 485/535 emission ratio was calculated for each well, and the mean ± SD values for 12 wells were averaged. […] Prism 8.1 was also used for nonlinear regression analysis to quantify dose–response relationships.

Square brackets hold non-standard residues; d marks the D form. Ends that are not written are not given here.

T1 sequence (P43220 24-463): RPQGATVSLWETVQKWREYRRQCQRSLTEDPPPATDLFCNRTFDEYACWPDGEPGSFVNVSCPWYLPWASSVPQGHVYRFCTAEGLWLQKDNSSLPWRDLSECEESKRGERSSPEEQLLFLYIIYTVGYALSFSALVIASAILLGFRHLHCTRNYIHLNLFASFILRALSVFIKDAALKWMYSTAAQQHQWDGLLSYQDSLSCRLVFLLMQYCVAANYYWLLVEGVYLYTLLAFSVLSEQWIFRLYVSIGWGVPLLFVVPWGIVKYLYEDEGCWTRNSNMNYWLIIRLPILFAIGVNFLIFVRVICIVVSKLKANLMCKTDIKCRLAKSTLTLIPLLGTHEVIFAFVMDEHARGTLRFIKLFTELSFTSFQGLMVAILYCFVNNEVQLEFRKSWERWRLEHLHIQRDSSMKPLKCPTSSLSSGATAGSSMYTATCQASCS
Chain of rat GlucR (P30082 27-485): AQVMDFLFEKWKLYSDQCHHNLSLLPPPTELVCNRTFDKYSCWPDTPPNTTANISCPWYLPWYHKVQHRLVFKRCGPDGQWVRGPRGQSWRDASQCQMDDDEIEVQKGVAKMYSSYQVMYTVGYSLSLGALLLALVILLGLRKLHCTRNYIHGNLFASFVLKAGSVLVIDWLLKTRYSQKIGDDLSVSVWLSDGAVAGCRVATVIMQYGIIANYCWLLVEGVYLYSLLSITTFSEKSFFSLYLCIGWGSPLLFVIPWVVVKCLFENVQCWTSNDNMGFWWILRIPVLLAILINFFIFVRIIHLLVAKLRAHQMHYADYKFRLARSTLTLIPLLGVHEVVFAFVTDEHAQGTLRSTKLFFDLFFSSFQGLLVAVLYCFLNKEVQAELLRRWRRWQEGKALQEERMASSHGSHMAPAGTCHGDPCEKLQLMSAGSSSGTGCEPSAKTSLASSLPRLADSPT

As usually defined, the Kd is a measure of binding affinity in units of concentration. The low end stands for tighter binding, the high end for weaker binding. As for “H[dS]QGTFTSDLSKQMEEEAVRLFIEWLKNGGPSRHYLNLVTRQRY-NH2 [EP44]”, the “increased GLP-1R potency over GEP44” value on human GLP-1R [1] (comparison of EC50 values) is on record as about 30%. For the same molecule, the Kd on rat GLP-1R was found to be 0.12 nM. Further, the “hill (competition binding at GLP-1R)” value at human GLP-1R [2] is “–1.56”.

With `CC[C@H](C)[C@H](NC(=O)[C@H](Cc1ccccc1)NC(=O)[C@H](CC(C)C)NC(=O)[C@H](CCCNC(=N)N)NC(=O)[C@@H](NC(=O)[C@H](C)NC(=O)[C@H](CCC(=O)O)NC(=O)[C@H](CCC(=O)O)NC(=O)[C@H](CCC(=O)O)NC(=O)[C@H](CCSC)NC(=O)[C@H](CCC(N)=O)NC(=O)[C@H](CCCCN=[N+]=[N-])NC(=O)[C@H](CO)NC(=O)[C@H](CC(C)C)NC(=O)[C@H](CC(=O)O)NC(=O)[C@H](CO)NC(=O)[C@@H](NC(=O)[C@H](Cc1ccccc1)NC(=O)[C@@H](NC(=O)CNC(=O)[C@H](CCC(N)=O)NC(=O)[C@@H](CO)NC(=O)[C@@H](N)Cc1c[nH]cn1)[C@@H](C)O)[C@@H](C)O)C(C)C)C(=O)N[C@@H](CCC(=O)O)C(=O)N[C@@H](Cc1c[nH]c2ccccc12)C(=O)N[C@@H](CC(C)C)C(=O)N[C@@H](CCCCN)C(=O)N[C@@H](CC(N)=O)C(=O)N[C@@H](CCCNC(=N)N)C(=O)N[C@@H](Cc1c[nH]cn1)C(=O)N[C@@H](Cc1ccc(O)cc1)C(=O)N[C@@H](CC(C)C)C(=O)N[C@@H](CC(N)=O)C(=O)N[C@@H](CC(C)C)C(=O)N[C@H](C(=O)N[C@H](C(=O)N[C@@H](CCCNC(=N)N)C(=O)N[C@@H](CCC(N)=O)C(=O)N[C@@H](CCCNC(=N)N)C(=O)N[C@@H](Cc1ccc(O)cc1)C(N)=O)[C@@H](C)O)C(C)C` [EP40], the “hill (competition binding at GLP-1R)” value at human GLP-1R [2] is reported as “–0.96”.

One may read the EC50 as the concentration needed to bring the measured effect to its halfway point. As a reminder, the IC50 is the concentration at which inhibition is half-maximal. For `CC[C@H](C)[C@H](NC(=O)[C@H](Cc1ccccc1)NC(=O)[C@H](CCC(=O)O)NC(=O)[C@H](CCCNC(=N)N)NC(=O)[C@@H](NC(=O)[C@H](C)NC(=O)[C@H](CCC(=O)O)NC(=O)[C@H](CCC(=O)O)NC(=O)[C@H](CCC(=O)O)NC(=O)[C@H](CC(C)C)NC(=O)[C@H](Cc1ccc(O)cc1)NC(=O)[C@H](CCCCN=[N+]=[N-])NC(=O)[C@H](CO)NC(=O)[C@H](CC(C)C)NC(=O)[C@H](CC(=O)O)NC(=O)[C@H](CO)NC(=O)[C@@H](NC(=O)[C@H](Cc1ccccc1)NC(=O)[C@@H](NC(=O)CNC(=O)[C@H](CCC(N)=O)NC(=O)[C@@H](CO)NC(=O)[C@@H](N)Cc1c[nH]cn1)[C@@H](C)O)[C@@H](C)O)C(C)C)C(=O)N[C@@H](C)C(=O)N[C@@H](Cc1c[nH]c2ccccc12)C(=O)N[C@@H](CC(C)C)C(=O)N[C@@H](CCCCN)C(=O)N[C@@H](CC(N)=O)C(=O)NCC(=O)NCC(=O)N1CCC[C@H]1C(=O)N[C@@H](CO)C(=O)N[C@@H](CCCNC(=N)N)C(=O)N[C@@H](Cc1c[nH]cn1)C(=O)N[C@@H](Cc1ccc(O)cc1)C(=O)N[C@@H](CC(C)C)C(=O)N[C@@H](CC(N)=O)C(=O)N[C@@H](CC(C)C)C(=O)N[C@H](C(=O)N[C@H](C(=O)N[C@@H](CCCNC(=N)N)C(=O)N[C@@H](CCC(N)=O)C(=O)N[C@@H](CCCNC(=N)N)C(=O)N[C@@H](Cc1ccc(O)cc1)C(N)=O)[C@@H](C)O)C(C)C` [GEP44], the EC50 is 0.33 nM on human GLP-1R [1] (HEK cells expressing human GLP-1R and cAMP biosensor H188, FRET, SES buffer pH 7.4, nonlinear regression, 95% CI in brackets, at least triplicate independent data sets, read-out: GLP-1R agonist action (EC50), increase of cytosolic cAMP); over 3000 nM at rat GlucR. Moreover, the IC50 on human Y1-R amounted to 27 nM; on human Y2-R it was 10 nM; on human GLP-1R [2] (nine concentrations 1 pM to 1 μM, range in brackets, read-out: IC50, competition binding at GLP-1R using red fluorescent GLP-1) it was 113 nM. Moreover, the “CLlnt, intrinsic clearance in rat liver microsomes” value in series [3] was 32.5 (1.18) μL/min/mg peptide.

Values taken from publication PMC7956155, “Design and Evaluation of Peptide Dual-Agonists of GLP-1 and NPY2 Receptors for Glucoregulation and Weight Loss with Mitigated Nausea and Emesis” (Journal of Medicinal Chemistry, 2021).
